According to patent US20060035846A1, “Preventing/correcting functional disorders of the pilosebaceous unit of mammals” (L'OREAL, priority 2002, published 2006):

Test system: costo-vertebral organ (CVO) of the hamster
Experiment: CVO test: inhibition of the "testosterone effect" by food supplements
Assay type: in vivo
Settings: daily topical application of testosterone to the right CVO from day 50; control animals without food supplement; FIG. 1
Text: 1-A: Principle of the CVO Test:
The CVO of the hamster is a cutaneous region rich in pilosebaceous units.
The CVO test consists of determining the anti-androgenic action of different compounds on the CVO, i.e., of determining whether said compounds prevent the action of testosterone (Liao S et al., Arch Dermatol Res, 293(4), 200-206 (2001)).
Consequently, this figure illustrates the “testosterone effect”.
As from the fiftieth day (dotted arrow), testosterone was applied daily to the right CVO.
The following products were used in the context of the in vivo CVO test such as defined above. These products were tested as food supplements, alone or in combination. • (a) the natural aroma of red wine rich in resveratrol (stilbenes) and proanthocyanidines (flavonoids) in the proportion of 0.11 g in 43 g of food (18% of polyphenols); • (b) a soja extract containing 40% of isoflavonoids, in a proportion of 0.02 g of extract in 44 g of food (40% of isoflavones); • (c) black currant pip oil rich in γ-linolenic acid (polyunsaturated fatty acid 18:3 n-6) in a proportion of 10% by weight in the foodstuff; • (d) the combination of the above three products.

In the case of `C[C@]12CC[C@H]3[C@@H](CCC4=CC(=O)CC[C@@]43C)[C@@H]1CC[C@@H]2O` [testosterone], the “size of the right CVO compared with that of the left CVO ("testosterone effect")” value is reported as “increase in the size”.
